In publication PMC12195967, “Cobalt(II) Complexes of 4′–Nitro–Fenamic Acid: Characterization and Biological Evaluation” (Molecules, 2025):
Where “and” joins values, the source holds several entries; their conditions need not be identical. Identical values can stand only once.

What was measured:
[1] = Reduction of hydrogen peroxide; conditions: compounds 0.1 mM; phosphate buffer pH 7.4; 10 min
Experimental: Harmful hydroxyl radicals are released when hydrogen peroxide interacts with transition metal ions, leading to oxidative stress. Consequently, both oxidative stress and the production of reactive oxygen species could be reduced by ^•OH scavengers and H2O2 reducing agents.
(§1) S1 Antioxidant activity assay
The antioxidant activity of the compound was evaluated via the ability to scavenge in vitro free radicals such as DPPH and ABTS and to reduce H2O2. […]
S1.3 Reduction of hydrogen peroxide
The ability of the compounds to reduce hydrogen peroxide (H2O2) was estimated according to the method described in the literature. The reaction mixture contained 20 μL of each of the tested compounds (0.1 mM) and 5 μL H2O2 solution (40 mM) in phosphate […]
buffer (50 mM, pH 7.4). The absorbance was measured at 230 nm after 10 min. The antioxidant activity (reduction of H2O2) of the compounds was expressed as the percentage decrease of the initial H2O2 solution (H2O2%). […]

[2] = target: T1, human serum albumin (HSA) (Homo sapiens, UniProt P02768); test: Albumin tryptophan fluorescence quenching; assay type: binding; conditions: for relative fluorescence intensity of HSA (I/Io, %), final: % of the initial HSA fluorescence remaining, λem 341 nm; for K(HSA): Scatchard equation, no site marker; for Kq (HSA): τ0 = 10^−8 s
T1 construct: purchased Sigma-Aldrich Co
T1 sequence (P02768 25-609): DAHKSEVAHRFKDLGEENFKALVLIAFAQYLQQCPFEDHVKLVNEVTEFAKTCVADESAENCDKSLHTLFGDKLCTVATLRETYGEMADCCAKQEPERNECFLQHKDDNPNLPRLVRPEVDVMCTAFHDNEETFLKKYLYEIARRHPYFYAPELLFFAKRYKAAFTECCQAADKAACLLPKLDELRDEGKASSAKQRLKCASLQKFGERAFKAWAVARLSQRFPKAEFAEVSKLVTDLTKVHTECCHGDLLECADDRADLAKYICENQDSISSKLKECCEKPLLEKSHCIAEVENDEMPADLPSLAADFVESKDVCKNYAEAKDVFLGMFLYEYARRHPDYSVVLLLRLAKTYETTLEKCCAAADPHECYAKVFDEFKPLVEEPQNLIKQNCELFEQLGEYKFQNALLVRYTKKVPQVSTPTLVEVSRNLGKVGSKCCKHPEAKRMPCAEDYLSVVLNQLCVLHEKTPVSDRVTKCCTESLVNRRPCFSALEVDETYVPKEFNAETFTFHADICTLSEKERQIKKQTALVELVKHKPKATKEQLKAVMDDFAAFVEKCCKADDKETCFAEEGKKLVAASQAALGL
Experimental: (§2) The interaction between complexes 1–4 and albumins was investigated by recording the tryptophan fluorescence emission spectra and monitoring the quenching induced by incremental amounts of the complexes. For these experiments, albumins ([…]) were prepared in buffer solution (150 mM NaCl and 15 mM trisodium citrate at pH = 7) and their fluorescence emission spectra were recorded in the range 300—500 nm for λexcitation = 295 nm. Upon incremental addition of the compounds (Figures S13 and S14), a significant decrease in the intensity of the corresponding emission band at λmax,emission = 341 nm and 345 nm for HSA and BSA, respectively, was observed (up to 87% of the initial fluorescence, Figure 8). The observed fluorescence emission quenching might be a result of a change in the spatial conformation of the protein and specifically of rearrangement of its secondary structure, as a result of SA–complex interactions. To quantify this interaction, the fluorescence emission spectra (λexcitation = 295 nm) of the compounds were subtracted from the corresponding overall spectra. The potential influence of the inner-filter effect on the measurements was evaluated with Equation (S6) and was found negligible to affect the measurements.
(§3) The Stern–Volmer constant (KSV), the SA-quenching constant (Kq) and the SA-binding constant (K) of the compounds were determined using the Stern–Volmer and Scatchard equations (Equations (S2), (S3) and (S7)) and corresponding plots (Figures S15–S18). In these calculations, the fluorescence lifetime of tryptophan in SAs (το) was assumed to be 10^−8 s. […]
(§4) S5 Albumin−binding studies
(§5) S5.1 Interaction with albumins
(§6) In order to study the interaction of the compounds with the albumins, the compound was initially dissolved in DMSO (1 mM). Mixing of such solutions with the aqueous buffer solutions of the albumins used in the studies never exceeded 5% DMSO (v/v) in the final solution, which was needed due to low aqueous solubility of most […]
(§7) With the purpose to investigate if the compound can bind to carrier protein like serum albumins, albumin binding studies were carried out by tryptophan fluorescence quenching experiments using BSA or HSA (3 μM) in buffer (containing 15 mM trisodium citrate and 150 mM NaCl at pH 7.0). The quenching of the emission intensity of tryptophan residues of BSA at 344 nm or HSA at 342 nm was monitored using the compound as quenchers with increasing concentration. The fluorescence emission spectra of the compound were also recorded with λexcitation = 295 nm; in case that an additional emission band appeared the albumin−fluorescence emission spectra were corrected by subtracting the spectra of the compound. The influence of the inner−filter effect on the measurements was evaluated by the equation [9] :
(§8) Icorr = Imeas × 10 2 × 10 2 (equation S6) where Icorr = corrected intensity, Imeas = the measured intensity, c = the concentration of the quencher, d = the cuvette (1 cm), ε(λexc) and ε(λem) = the ε of the quencher at the excitation and the emission wavelength, respectively, as calculated from the UV−vis spectra of the […]
(§9) The Stern−Volmer and Scatchard graphs are used to study the interaction of the compound with the albumins. According to the Stern−Volmer quenching equation (equation S2), where Io = initial tryptophan fluorescence intensity of albumin, I = tryptophan fluorescence intensity of BSA after the addition of the quencher, Kq = quenching constant, KSV = Stern−Volmer constant, τo = average lifetime of albumin without the quencher, and, taking as fluorescence lifetime (τo) of tryptophan in albumin at around 10−8 s, KSV (in M−1) can be obtained by the slope of the diagram Io/I versus [compound] (Stern−Volmer plots), […]
(§10) and subsequently the quenching constant (Kq, in M−1s−1) may be calculated from equation From the Scatchard equation:
(§11) [Q] = nK − K Io (equation S7) where n is the number of binding sites per albumin and K is the albumin−binding constant […]

[3] = target: T2, bovine serum albumin (BSA) (Bos taurus, UniProt P02769); test: Albumin tryptophan fluorescence quenching; assay type: binding; conditions: for relative fluorescence intensity of BSA (I/Io, %), final: % of the initial BSA fluorescence remaining, λem 345 nm; for K(BSA): Scatchard equation, no site marker; for Kq (BSA): τ0 = 10^−8 s
T2 construct: purchased Sigma-Aldrich Co
T2 sequence (P02769 25-607): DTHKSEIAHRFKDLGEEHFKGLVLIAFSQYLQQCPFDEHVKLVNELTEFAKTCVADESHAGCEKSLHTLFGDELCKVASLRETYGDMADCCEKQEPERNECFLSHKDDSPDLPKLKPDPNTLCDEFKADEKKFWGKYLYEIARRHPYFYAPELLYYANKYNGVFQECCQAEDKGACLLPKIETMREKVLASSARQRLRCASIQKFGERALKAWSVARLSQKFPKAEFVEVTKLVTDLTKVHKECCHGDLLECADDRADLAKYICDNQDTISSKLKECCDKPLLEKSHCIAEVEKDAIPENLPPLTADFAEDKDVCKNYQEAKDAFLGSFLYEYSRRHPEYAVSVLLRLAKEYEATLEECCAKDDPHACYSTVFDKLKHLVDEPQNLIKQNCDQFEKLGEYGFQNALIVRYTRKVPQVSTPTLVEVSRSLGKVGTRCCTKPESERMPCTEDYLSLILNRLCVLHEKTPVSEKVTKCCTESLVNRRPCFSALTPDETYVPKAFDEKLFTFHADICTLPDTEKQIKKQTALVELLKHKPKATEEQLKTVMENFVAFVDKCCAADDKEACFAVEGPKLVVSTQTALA
Experimental: as §2, §3, §4, §5, §6, §7, §8, §9, §10, §11

[4] = ABTS radical cation scavenging; conditions: compounds 0.1 mM; absorbance 734 nm after 1 min
Experimental: The ABTS-scavenging was measured through the discoloration of a dark green solution containing the cationic radical ABTS^•+, which was induced from the oxidation derived from hydrogen-donating antioxidants, either complexes or standards, and is often considered a marker of total oxidation capacity. […] Such an increase in activity upon coordination is expected for metal–NSAID complexes.
as §1
The antioxidant activity of the compound was evaluated via the ability to scavenge in vitro free radicals such as DPPH and ABTS and to reduce H2O2. All the experiments were carried out at least in triplicate and the standard deviation of absorbance was less than 10% […]
S1.2 Assay of radical cation ABTS−scavenging activity
The ABTS assay was performed to determine the activity of the compounds to scavenge the radical cation ABTS. Initially, a water solution of ABTS was prepared (2 mM).
ABTS radical cation (ABTS+·) was produced by the reaction of ABTS stock solution with potassium persulfate (0.17 mM) and the mixture was stored in the dark at room temperature for 12−16 h before its use. The ABTS was oxidized incompletely because the stoichiometric reaction ratio of ABTS and potassium persulfate is 1:0.5. The absorbance became maximal and stable only after more than 6 h of reaction although the oxidation of the ABTS started immediately. The radical was stable in this form for more than 2 days when allowed to stand in the dark at room temperature. Afterwards, the ABTS+· solution was diluted in ethanol to an absorbance of 0.70 at 734 nm and 10 μL of diluted compounds or standards (0.1 mM) in DMSO were added. The absorbance was recorded out exactly 1 min after initial mixing.
The ABTS–radical scavenging activity of the compounds was expressed as the percentage inhibition of the absorbance of the initial ABTS solution (ABTS%). […]

Solubility = assay type: physicochemical

Compound	H2O2-reducing ability (H2O2%) [1]	relative fluorescence intensity of HSA (I/Io, %), final [2]	K(HSA) [2]	Kq (HSA) [2]	relative fluorescence intensity of BSA (I/Io, %), final [3]	K(BSA) [3]	Kq (BSA) [3]	%ABTS radical scavenging activity (ABTS%) [4]	solubility in H2O and MeCN (Solubility)
O=C(O)c1ccccc1Nc1ccc([N+](=O)[O-])cc1 [4′–NO2–fenH, 4′–nitrofenamic acid]	66.46% and 66.46 ± 0.33%	54.3%	3.82 (±0.09) × 10^5 M^−1	9.54 (±1.09) × 10^12 M^−1s^−1	45.0%	3.31 (±0.14) × 10^5 M^−1	1.18 (±0.09) × 10^13 M^−1s^−1	Not active	
CO.CO.CO.CO.O=C([O-])c1ccccc1Nc1ccc([N+](=O)[O-])cc1.O=C([O-])c1ccccc1Nc1ccc([N+](=O)[O-])cc1.[Co+2] [Complex 1, [Co(4′–NO2–fen)2(MeOH)4]]	72.68 ± 0.63%	32.8%	1.68 (±0.04) × 10^5 M^−1	1.10 (±0.03) × 10^13 M^−1s^−1	45.6%	1.68 (±0.07) × 10^5 M^−1	9.51 (±0.06) × 10^12 M^−1s^−1	24.68 ± 0.35%	partially soluble
O=C([O-])c1ccccc1Nc1ccc([N+](=O)[O-])cc1.O=C([O-])c1ccccc1Nc1ccc([N+](=O)[O-])cc1.[Co+2].c1ccc(Nc2ccccn2)nc1 [Complex 2, [Co(4′–NO2–fen)2(bipyam)]]	77.59 ± 0.28%	21.1%	2.56 (±0.10) × 10^5 M^−1	1.91 (±0.06) × 10^13 M^−1s^−1	35.3%	1.75 (±0.08) × 10^5 M^−1	1.30 (±0.06) × 10^13 M^−1s^−1	43.65 ± 0.37%	partially soluble
O=C([O-])c1ccccc1Nc1ccc([N+](=O)[O-])cc1.O=C([O-])c1ccccc1Nc1ccc([N+](=O)[O-])cc1.[Co+2].c1cnc2c(c1)ccc1cccnc12 [Complex 3, [Co(4′–NO2–fen)2(phen)]]	69.48 ± 0.37%	22.7%	1.93 (±0.09) × 10^5 M^−1	1.87 (±0.04) × 10^13 M^−1s^−1	24.4%	2.06 (±0.07) × 10^5 M^−1	1.64 (±0.04) × 10^13 M^−1s^−1	48.12 ± 0.88%	partially soluble
C[O-].C[O-].Cc1ccc2ccc3ccc(C)nc3c2n1.Cc1ccc2ccc3ccc(C)nc3c2n1.O=C([O-])c1ccccc1Nc1ccc([N+](=O)[O-])cc1.O=C([O-])c1ccccc1Nc1ccc([N+](=O)[O-])cc1.[Co+2].[Co+2] [Complex 4, [Co2(4′–NO2–fen)2(μ–CH3O)2(neoc)2]]	72.44 ± 0.42%	12.1%	5.03 (±0.19) × 10^5 M^−1	3.98 (±0.12) × 10^13 M^−1s^−1	19.2%	2.74 (±0.10) × 10^5 M^−1	2.19 (±0.05) × 10^13 M^−1s^−1	21.39 ± 0.22%	partially soluble
